Calls of active or inactive are those of the source.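 How the source made its calls: active means compounds giving half or more protection of infected cells from virus-caused growth loss, again on retest; inactive means the rest.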
System: CEM cells HIV-1 protection, formazan growth assay
Assay: NCI AIDS Antiviral Assay
Conditions: for IC50: measured here: growth of uninfected CEM cells
Procedure, shortened: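 Protection of CEM cells against HIV-1 was scored from cell growth (soluble formazan) across five concentrations, with parallel uninfected cells. Lack of protection may reflect toxicity.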

| Compound | outcome | EC50 [µM] | IC50 [µM] |
| --- | --- | --- | --- |
| C=CC[P@@]1(=O)O[C@H](c2ccccc2)C(C)N1C(C)C (stereo partly specified) | inactive | – | – |
| CC1NC(=O)C(C)C(c2ccccc2)N(N=O)C1c1ccccc1 (stereo unspecified) | – | > 209 | 186 |
| CC1(C)CSCC(C)(C)C(=N/N)/C1=N\N | – | > 200 | > 200 |
| O=[N+]([O-])c1ccccc1S(=O)(=O)c1ccccc1[N+](=O)[O-] | – | 1.26 | 145 |
| C[C@]12CCCCC1(O)C[C@H](C(=O)O)CC2 (stereo partly specified) | inactive | – | – |
| Cc1c(Cl)cccc1NC(=O)CC1C(=O)Nc2ccccc2S1(=O)=O (stereo unspecified) | – | > 5.25 | > 5.25 |
| O=C(c1cccc(Cl)c1)c1c(O)c2ccccc2oc1=O | inactive | – | – |
| C=CCCC(=O)C(Cc1ccccc1OC)C(=O)OC (stereo unspecified) | – | > 129 | > 129 |
| CCC1(CC)SCc2nc3ccccc3n21 | – | > 200 | 63.1 |
| C=CC1(O)CCCC=C1COCc1ccccc1 (stereo unspecified) | – | > 200 | 33.1 |
| COC(=O)C1(C(=O)OC)N=C(C)OC1c1ccoc1 (stereo unspecified) | – | > 200 | > 200 |
| c1ccc(CN(Cc2ccccn2)Cn2cccn2)nc1 | inactive | – | – |
| NC(=O)CNC(=O)c1ccccc1SC(=O)NCCBr | – | 2 | 10 |
| CN(/N=C(\C(=O)O)c1ccccc1)C1=NCCCCN1 | – | > 200 | > 100 |
| O=C(/C=C/c1ccccc1)Oc1cccc(Br)c1 | – | > 200 | 17.8 |
| COc1cc(C)c(Cc2cnc(N)nc2N)cc1OC | – | > 200 | > 200 |
| COc1cc(/C=C(\OC(C)=O)c2ccc3c(c2)OCO3)cc(OC)c1OC | – | > 126 | 52.5 |
| FC(F)C(F)(F)C(F)(F)C(F)(F)C(F)(F)C(F)(F)COC(OCC(F)(F)C(F)(F)C(F)(F)C(F)(F)C(F)(F)C(F)F)OCC(F)(F)C(F)(F)C(F)(F)C(F)(F)C(F)(F)C(F)F | – | > 200 | > 200 |
| COC(=O)CCC1(C)C2CCC1/C(=N/O)C2 (stereo unspecified) | – | > 200 | > 200 |
| COC/N=C(/N)NC#N | – | > 692 | > 692 |
| CC(C)=CCC[C@@H](C)[C@H]1CC[C@@]2(C)[C@@H]3CC[C@H]4C(C)(C)[C@@H](O)CC[C@@]45C[C@@]35CC[C@]12C | – | > 200 | 126 |
| CC(=O)/C(=C/N1CCNC1=S)C(=O)Nc1ccccc1C | – | > 200 | > 200 |

| Compound | outcome | EC50 [µM] | IC50 [µM] |
| --- | --- | --- | --- |
| CCOC(=O)C1C(c2ccccc2)C(C(=O)OCC)C(O)(C(F)(F)F)OC1(O)C(F)(F)F (stereo unspecified) | inactive | – | – |
| CC(=O)Nc1ccc(S(=O)(=O)Nc2ccc(S(=O)(=O)c3ccc(NC(=O)c4ccccc4SSc4ccccc4C(=O)Nc4ccc(S(=O)(=O)c5ccc(NS(=O)(=O)c6ccc(NC(C)=O)cc6)cc5)cc4)cc3)cc2)cc1 | – | 24 | > 100 |
| O=C(NC1CCCCC1)/C(=C\c1ccc2c(c1)OCO2)NC(=O)c1ccccc1 | – | > 200 | > 200 |
| O=C(Cn1c(=O)ccn(C2OC(CO)C(O)C2F)c1=O)c1ccc(F)cc1 (stereo unspecified) | – | > 200 | > 200 |
| COc1ccc(/C(=N\NC(=O)NN)C(c2ccc(OC)cc2)C2(O)C(=O)Nc3c(Cl)cc(Cl)cc32)cc1 (stereo unspecified) | – | > 9.55 | > 9.55 |
| COCCCC(NC(=O)C(CC(C)C)NC(=O)OCc1ccc(OC)cc1)C(N)=O (stereo unspecified) | – | > 200 | 182 |
| COc1ccc(/C=C/C(=N/NC(=O)N/N=C(/C=C/c2ccc(OC)cc2)C(C)C)C(C)C)cc1 | – | > 200 | 37.2 |
| NS(=O)(=O)c1nnc(NC(=O)Nc2ccc(Cl)c(Cl)c2)s1 | – | > 200 | 26.3 |
| COc1ccc(/C=N/N=C(\N)NO)c(O)c1 | – | > 200 | 10.5 |
| COc1ccc(-c2nc(-c3cc4c(ccc5ccccc54)oc3=O)cs2)cc1 | – | > 100 | > 100 |
| Cc1c(Cl)cccc1NC(=O)C(=O)C(C(=O)c1ccccc1-c1ccccc1)C1OC(=O)c2ccccc21 (stereo unspecified) | – | > 69.2 | 26.3 |
| Cc1ccc(S(=O)(=O)/C(C#N)=C/NC(=S)Nc2ccc(C)cc2C)cc1 | inactive | – | – |
| Cc1ccc(NC(=S)NNC(=O)c2cc(-c3ccccc3)nc3ccccc23)cc1 | – | > 200 | 12.9 |
| COC(=O)C12C(=O)CC3CCC1C32C(=O)OC (stereo unspecified) | inactive | – | – |
| O=C1/C(=C/c2ccc(O)c(O)c2)CCc2ccccc21 | – | > 162 | 2.4 |
| CN(C)c1ccc(/C=C(\C#N)c2c(Br)cccc2Br)cc1 | – | > 200 | 4.17 |
| Cc1cccc(N=Nc2c(C)nn(C(=O)c3ccccc3Cl)c2C)c1 | inactive | – | – |
| CC1(C)O[C@@H]([C@H](O)CO)[C@H](O)[C@@H](C2SCCCS2)O1 | – | > 200 | > 200 |
| C=C(C)[C@@]1(O)O[C@H]2C[C@@]3(C)OC(=CC3=O)/C(C)=C\[C@@H]3OC(=O)[C@@]1(C)[C@H]32 | – | > 200 | 5.25 |
| COC(=O)C1(C)NCCc2c1[nH]c1ccccc21 (stereo unspecified) | – | > 331 | > 331 |
| CCCCSC(=CC(=O)c1cccc(C(=O)C=C(SCCCC)SCCCC)n1)SCCCC | – | > 3.72 | > 3.72 |
| S=C1NC2(CCCCC2)NC12CCCCC2 | – | > 200 | > 200 |

| Compound | outcome | EC50 [µM] | IC50 [µM] |
| --- | --- | --- | --- |
| COC1CCC(=O)N1CN(C(C)=O)c1ccc(C)cc1 (stereo unspecified) | inactive | – | – |
| O=S1(=O)C[C@H](NCc2ccccc2)[C@H](NCc2ccccc2)C1 | – | > 200 | 107 |
| C=C1CC(COc2cc(Cl)nc(N)n2)C1 | – | > 200 | 24.5 |
| O=C(CCNNC(=O)c1ccncc1)NCc1ccccc1 | – | > 200 | > 200 |
| Clc1ccccc1C1=NN(c2ccccc2)C2c3ccccc3OCC12 (stereo unspecified) | – | > 72.4 | > 72.4 |
| COc1cc(OC)c(-c2oc3ccccc3c(=O)c2O)c(OC)c1 | inactive | – | – |
| CCCCOC(=O)C1CN2C=CC=NC2=NC1(C(F)(F)F)C(F)(F)F (stereo unspecified) | inactive | – | – |
| CCN(CC)C(=S)Nc1ccc(-c2cc3ccc(O)cc3oc2=O)cc1 | – | > 200 | 14.1 |
| CC(C)(C)OC/C=C1\C(=O)O[C@H]2C[C@@H](O[Si](C)(C)C(C)(C)C)C[C@@H]12 | – | > 200 | 39.8 |
| CC1(C)OC2OC(C(COC(=O)c3ccccc3)OC(=O)c3ccccc3)C(F)C2O1 (stereo unspecified) | – | > 43.7 | > 43.7 |
| CC1=NN(C(=O)c2ccc(O)cc2)C(=O)C1N=Nc1ccccc1C(=O)O (stereo unspecified) | inactive | – | – |
| C/C=C1/CN2CCC34C5=CC(=O)C(c6cc7c(cc6OC)N(C)C6=C(C(=O)OC)CC8(CC)CCCN9CCC67C98)=CC5=NC23CCC1C4C(=O)OC (stereo unspecified) | – | > 200 | 4.9 |
| COC(=O)[C@H](CO)NC(=O)CC/C(C)=C/c1ccccc1 | – | > 200 | 191 |
| O=C(Cc1ccccc1)NN1C(=O)C(Cl)C1c1cccc(O)c1 (stereo unspecified) | – | > 40.7 | 15.5 |
| COc1ccc(/C=C(\C(=C/c2ccc(OC)cc2)[N+](=O)[O-])[N+](=O)[O-])cc1 | – | > 200 | 4.57 |
| CC12c3ccccc3C(C)(c3c1ccc1ccccc31)C1C(=O)OC(=O)C12 (stereo unspecified) | – | > 38.9 | 26.9 |
| Cc1cccc(C)c1Nc1nc(C)c(C(=O)CC(=O)C(=O)Nc2c(C(C)C)cccc2C(C)C)s1 | – | > 200 | > 200 |
| O=c1ccc2ccc3occc(=O)c3c2o1 | – | > 120 | 102 |
| COC(=O)CC1C2CC3C(C2=O)C13 (stereo unspecified) | – | > 200 | > 200 |
| Cn1cnc2[nH]c(=O)n(O)c(=O)c21 | – | > 200 | 35.5 |

Source: PubChem BioAssay AID179 (DTP/NCI, 2004)
